Source: patent publication US20050090398A1, “Novel tetrazole derivative useful as herbicides” (priority 2002, published 2005)

Legend:
[1] = test system: Amaranthus retroflexus; assay: Test of post-emergence foliage treatment against field weeds; type: in vivo; settings: post-emergence foliage treatment at 2-leaf stage, 2.0 kg/ha effective component, examined 3 weeks after treatment
Method: (§1) Preparation of formulation of the active compound • Carrier: Acetone 5 parts by weight • Emulsifier: Benzyloxy polyglycol ether 1 part by weight
(§2) A formulation of an active substance is obtained as an emulsifiable concentrate by mixing 1 part by weight of the active compound with the above-mentioned amount of the carrier and emulsifier. A prescribed amount of the formulation is diluted with water.
(§3) In a green house, seeds of Echinochloa crusgalli, Setaria viridis, Amaranthus retro-flexus and Polygonum were sown in a 120 cm^2 pot filled with field soil and covered with soil. 10 days after the sowing and soil covering (weeds were 2-leaf stage in average) a diluted solution of the prescribed chemical amount prepared in the same manner as in the above-mentioned Test Example 1 was spread uniformly on the foliage of the test plants in each test pot. The herbicidal effect was examined 3 weeks after the treatment.

[2] = test system: Echinochloa crusgalli; assay: as above; type: in vivo; settings: post-emergence foliage treatment at 2-leaf stage, 2.0 kg/ha effective component, examined 3 weeks after treatment
Method: as §1, §2, §3

[3] = test system: Setaria viridis; assay: as above; type: in vivo; settings: post-emergence foliage treatment at 2-leaf stage, 2.0 kg/ha effective component, examined 3 weeks after treatment
Method: as §1, §2, §3

[4] = test system: Polygonum; assay: as above; type: in vivo; settings: post-emergence foliage treatment at 2-leaf stage, 2.0 kg/ha effective component, examined 3 weeks after treatment
Method: as §1, §2, §3

[5] = test system: paddy field weeds; assay: Test for herbicidal effect against paddy field weeds; type: in vivo; settings: 0.25 kg/ha active component, applied to water surface 5 days after rice transplantation, examined after 3 weeks
Method: as §1, §2
(§4) In a green house 3 seedlings of paddy rice (variety: Nihonbare) of 2.5 leaf stage (15 cm tall) were transplanted in a 500 cm^2 pot filled with paddy field soil. Then seeds or tubers of Echinochloa crusgalli, Cyperus difformis L., Scirpus juncoides Roxburgh, Monochoria vaginalis Presl, broad-leaved weeds (Lindernia Procumbens Philcox, Rotala indica Koehne, Elatine triandra Schk, Ammannia multiflora Roxb., Dopatrium junceum Hammilt etc.), Cyperus serotinus Rottboel and Sagittaria pygmaea Miq were inoculated and water was poured to a depth of about 2-3 cm. 5 days after the rice transplantation a prescribed, diluted solution of each formulation of active compound prepared according to the aforementioned preparation method was applied to the surface of water. After the treatment the water depth of 3 cm was maintained and the herbicidal effect was examined after 3 weeks from the treatment. The herbicidal effect was rated 100% in the case of complete death and as 0% in the case of no herbicidal effect.

[6] = test system: transplanted paddy rice; assay: Paddy field test: safety to transplanted paddy rice; type: in vivo, paddy rice (variety: Nihonbare); settings: 0.25 kg/ha active component, applied to water surface 5 days after rice transplantation, examined after 3 weeks
Method: as §1, §2, §4

Compound	herbicidal activity against Amaranthus retroflexus [1] [%]	herbicidal activity against Echinochloa crusgalli [2] [%]	herbicidal activity against Setaria viridis [3] [%]	herbicidal activity against Polygonum [4] [%]	herbicidal effect against paddy field weeds [5]	safety to the transplanted paddy rice [6]	melting point [°C]
CS(=O)(=O)c1ccc(C(=O)C2C(=O)CCCC2=O)c(Cl)c1Cn1cnnn1 [compound 495]	90	90	90	90	–	–	–
Cc1nnnn1Cc1c(S(C)(=O)=O)ccc(C(=O)C2C(=O)CCCC2=O)c1Cl [compound 558]	–	–	–	–	sufficient herbicidal effect	safety to the transplanted paddy rice	–
CS(=O)(=O)c1ccc(C(=O)C2=C(Cl)CCCC2=O)c(Cl)c1Cn1ncnn1 [compound 2347]	90	90	90	90	–	–	–
O=C(c1ccc(Br)c(OCCn2cnnn2)c1Br)C1C(=O)C2CCC(C2)C1=O (centres unmarked) [compound 1239]	90	90	90	90	–	–	–
Cc1nnn(CCOc2c(Cl)ccc(C(=O)C3C(=O)CC(C)(C)CC3=O)c2Cl)n1 [compound 2081]	90	90	90	90	–	–	–
CS(=O)(=O)c1ccc(C(=O)C2C(=O)CCCC2=O)c(Cl)c1OCCn1cnnn1 [compound 715]	90	90	90	90	–	–	–
O=C1CCCC(Sc2ccccc2)=C1C(=O)c1ccc(Cl)c(OCCn2cnnn2)c1Cl [compound 219]	–	–	–	–	sufficient herbicidal effect	safety to the transplanted paddy rice	–
Cc1cccc(C)c1SC1=C(C(=O)c2ccc(S(C)(=O)=O)c(Cn3ncnn3)c2Cl)C(=O)CCC1 [compound 2335]	–	–	–	–	sufficient herbicidal effect	safety to the transplanted paddy rice	–
CC1CC(=O)C(C(=O)c2ccc(Cl)c(OCCn3cnnn3)c2Cl)C(=O)C1 (centres unmarked) [compound 215]	90	90	90	90	–	–	–
O=C1CCCC(Sc2ccccc2)=C1C(=O)c1ccc(Cl)c(OCCn2ncnn2)c1Cl [compound 2024]	–	–	–	–	sufficient herbicidal effect	safety to the transplanted paddy rice	–
O=C1CCCC(=O)C1C(=O)c1ccc(Br)c(OCCn2ncnn2)c1Br [compound 3038]	90	90	90	90	–	–	–
CCn1ncc(C(=O)c2ccc(Br)c(OCCn3cnnn3)c2C)c1O [compound 1593]	90	90	90	90	–	–	–
Cc1nnn(CCOc2c(Cl)ccc(C(=O)C3C(=O)CCCC3=O)c2Cl)n1 [compound 2080]	90	90	90	90	–	–	–
CCn1ncc(C(=O)c2ccc(Cl)c(OCCn3ncnn3)c2Cl)c1O [compound 2077]	90	90	90	90	–	–	–
O=C1CCCC(Cl)=C1C(=O)c1ccc(Cl)c(OCCn2cnnn2)c1Cl [compound 258]	90	90	90	90	–	–	–
CSc1nnnn1Cc1c(S(C)(=O)=O)ccc(C(=O)C2C(=O)CCCC2=O)c1Cl [compound 650]	90	90	90	90	–	–	–
O=C1CCCC(Cl)=C1C(=O)c1ccc(Cl)c(OCCn2ncnn2)c1Cl [compound 2063]	90	90	90	90	–	–	–

Compound	herbicidal activity against Amaranthus retroflexus [1] [%]	herbicidal activity against Echinochloa crusgalli [2] [%]	herbicidal activity against Setaria viridis [3] [%]	herbicidal activity against Polygonum [4] [%]	herbicidal effect against paddy field weeds [5]	safety to the transplanted paddy rice [6]	melting point [°C]
CC1(C)CC(=O)C(C(=O)c2ccc(Cl)c(OCCn3cnnn3)c2Cl)C(=O)C1 [compound 213]	90	90	90	90	–	–	–
O=C(c1ccc(Cl)c(OCCn2ncnn2)c1Cl)C1C(=O)C2CCC(C2)C1=O (centres unmarked) [compound 2022]	90	90	90	90	–	–	–
O=C1CCCC(=O)C1C(=O)c1ccc(Br)c(OCCn2cnnn2)c1Br [compound 1234]	90	90	90	90	–	–	–
O=C1CCCC(=O)C1C(=O)c1ccc(Cl)c(OCCn2cnnn2)c1Cl [compound 212]	90	90	90	90	–	–	–
Cc1nnn(Cc2c(S(C)(=O)=O)ccc(C(=O)C3C(=O)CCCC3=O)c2Cl)n1 [compound 2364]	90	90	90	90	sufficient herbicidal effect	safety to the transplanted paddy rice	–
Cc1nnnn1CCOc1c(Cl)ccc(C(=O)C2C(=O)CCCC2=O)c1Cl [compound 275]	90	90	90	90	–	–	–
Cc1ccc(SC2=C(C(=O)c3ccc(S(C)(=O)=O)c(Cn4ncnn4)c3Cl)C(=O)CCC2)cc1 [compound 2329]	–	–	–	–	sufficient herbicidal effect	safety to the transplanted paddy rice	–
O=C1CCCC(Sc2ccccc2)=C1C(=O)c1ccc(Cl)c(OCCn2cnnn2)c1Cl	–	–	–	–	–	–	64 to 70
O=C(c1ccc(Cl)c(OCCn2cnnn2)c1Cl)C1C(=O)C2CCC(C2)C1=O (centres unmarked) [compound 217]	–	–	–	–	sufficient herbicidal effect	safety to the transplanted paddy rice	–
CS(=O)(=O)c1ccc(C(=O)C2C(=O)CCCC2=O)c(Cl)c1Cn1ncnn1 [compound 2301]	90	90	90	90	–	–	–
O=C1CCCC(=O)C1C(=O)c1ccc(Cl)c(OCCn2ncnn2)c1Cl [compound 2017]	90	90	90	90	–	–	–
CCn1ncc(C(=O)c2ccc(Cl)c(OCCn3cnnn3)c2Cl)c1O [compound 272]	90	90	90	90	–	–	–
O=C1CCCC(Cl)=C1C(=O)c1ccc(Cl)c(OCCn2cnnn2)c1Cl	–	–	–	–	–	–	122 to 124
CCn1ncc(C(=O)c2ccc([N+](=O)[O-])c(OCCn3cnnn3)c2C)c1O [compound 1693]	90	90	90	90	–	–	–
CS(=O)(=O)c1ccc(C(=O)C2C(=O)CCCC2=O)c(Cl)c1OCCn1ncnn1 [compound 2521]	90	90	90	90	–	–	–
O=C(c1ccc(Br)c(OCCn2ncnn2)c1Br)C1C(=O)C2CCC(C2)C1=O (centres unmarked) [compound 3043]	90	90	90	90	–	–	–
